Source: US20240261443A1, “COMPOUNDS AND COMPOSITIONS USEFUL AS RADIOTRACERS FOR IMAGING OF REACTIVE OXIDATIVE SPECIES” (Wake Forest University Health Sciences, priority 2019, published 2024)

Key:
[1] = test system: SCC-61 and rSCC-61 cell lines; experiment: MitoSOX fluorescence ROS assay, with or without SOD blocker; format: cell-based, human
Protocol: As a first-line tool to screen KS1 and KS2: SCC-61 has higher intracellular ROS than rSCC-61. MitoSOX is a mitochondrion-targeted dihydroethidium based derivative that primarily detects ROS (superoxide anion) produced within mitochondria. Mitosox assays without any ligands were used as controls. The two cell lines were treated with KS1, KS2 and ascorbate (10.0 μM) and incubated for an hour. MitoSOX (1.0 μM) in phenol red-free DMEM/F12 media was added and incubated for an additional 10 min. The cells were then washed with PBS and imaged in the same media.
In addition to testing KS1 with the MitoSOX assay, we compared our results with no ligand controls and ascorbate as a reference standard. The two cell lines were treated with KS1 and ascorbate (10.0 μM) and incubated for an hour. MitoSOX (1.0 μM) in phenol red-free DMEM/F12 media was added and incubated for an additional 10 min. The cells were then washed with PBS and imaged in the same media. Ligand specificity is commonly determined by pretreating the cells with high concentrations of blockers. Superoxide dismutase (SOD), an enzyme that selectively suppresses accumulation of ROS-superoxide peroxide anions, was added as blocker (1.0 mM) 60 min before the treatment of KS1 (Bielski et al., Chemistry of ascorbic acid radicals. in Ascorbic Acid: Chemistry, Metabolism, and Uses. Chapter. 1982; 4:81-100). Fluorescence was subsequently measured and its intensity was quantified in f.u (fluorescence units).
Ligand specificity is commonly determined by pretreating the cells with high concentrations of blockers. We used superoxide dismutase (SOD), an enzyme that selectively suppresses accumulation of ROS-superoxide peroxide anions (Bielski et al., Chemistry of ascorbic acid radicals. in Ascorbic Acid: Chemistry, Metabolism, and Uses. Chapter 1982, 4, 81-100). The same MitoSOX assay with KS1 and KS2 (10 μM) was performed by pretreating the SCC-61 cells with SOD (1.0 mM) for 60 min.

[2] = test system: SCC-61 and PC3 cell lines; experiment: DCFDA intracellular ROS detection assay; format: cell-based, human
Description: For this, we used dichlorofluorescin diacetate (DCFDA) intracellular ROS detection assay kit and followed manufacture recommended protocol (ZHELEV et al., Docosahexaenoic Acid Sensitizes Leukemia Lymphocytes to Barasertib and Everolimus by ROS-dependent Mechanism Without Affecting the Level of ROS and Viability of Normal Lymphocytes. Anticancer Research 2016, 36 (4), 1673-1682). We studied two patient-derived tumor cell lines: SCC-61, […], and PC3, prostate cancer cell line. The maximum allowed mass for a typical clinical PET radiotracer is <100 μM (Schwarz et al., Radiochemistry and radiopharmacology. LIC-Nuclear Medicine and PET/CT: Technology and Techniques 2016, 11, 77), so we chose 10-100 μM as our concentration range for tracer-level assays. The lowest reported pharmacologic dose for ascorbate is 2.0 mM (Levine et al., Vitamin C: a concentration-function approach yields pharmacology and therapeutic discoveries. Adv Nutr 2011, 2 (2), 78-88), so we chose this dose for our pharmacological assays. We chose the ligand incubation times based on the maximum tracer uptake time (˜2 h) for a typical [^18F]-based PET radiotracer injection (Schlyer, PET tracers and radiochemistry. ANNALS-ACADEMY OF MEDICINE SINGAPORE 2004, 33 (2), 146-154).
Pharmacologic doses of ascorbate generates ROS, including H2O2 and trace amounts of labile iron extracellularly and/or intracellularly (Nauman et al., Systematic Review of Intravenous Ascorbate in Cancer Clinical Trials. Antioxidants (Basel) 2018, 7 (7), 89). We performed the same DCFDA assay with KS1 and ascorbate at pharmacological doses of 2 mM for 7 h in both SCC-61 and PC3 cell lines. ROS production was analyzed and reported (FIG. 11) using the similar measurements as above. Ligand specificity is commonly determined by pretreating the cells with high concentrations of blockers. We used superoxide dismutase (SOD), an enzyme that selectively suppresses accumulation of superoxide peroxide anions (Bielski et al., Chemistry of ascorbic acid radicals. in Ascorbic Acid: Chemistry, Metabolism, and Uses. Chapter 1982, 4, 81-100).

PC3 tumors = experiment: microPET imaging in PC3 tumor-bearing mice; format: in vivo; conditions: ROI analysis
[3] = test system: SCC-61 and rSCC-61 tumors; experiment: microPET/CT imaging in SCC-61 and rSCC-61 tumor-bearing mice; format: in vivo
Description: After evaluating the complete in vitro ROS uptake and stability profile of [^18F]KS1, we performed in vivo microPET/CT scans in tumor-bearing mice. To test our hypothesis of selective binding of [^18F]KS1 to image ROS in tumor tissue, we reported the baseline and blocking PET imaging data in a murine model of PCa (Solingapuram Sai et al., Initial biological evaluations of 18F-KS1, a novel ascorbate derivative to image oxidative stress in cancer. EJNMMI Research 2019, 9 (1), 43). Further, to test the differential ROS uptake of [^18F]KS1, microPET/CT imaging experiments were performed in both SCC-61 and rSCC-61 tumor-bearing mice (n=5, 25±2.5 g).

SCC-61 tumors = experiment: Post-PET biodistribution, SCC-61 tumor-bearing mice; format: in vivo
Protocol: (§1) Subsequently, post-PET biodistribution was performed in the same SCC-61 or rSCC-61 tumor-bearing mice injected with [^18F]KS1 (FIG. 16). […] High kidney and liver uptake were common with [^18F]radiotracer's distribution at 30 min post-injection.

rSCC-61 tumors = experiment: Post-PET biodistribution, rSCC-61 tumor-bearing mice; format: in vivo
Protocol: as §1

residual uptake in other organs, including bladder and kidney ([3]; post 1-h radiotracer injection) | target (tumor) to non-target (muscle) ratio (SCC-61 tumors; SCC-61 tumors, post-PET) | enrichment in SCC-61 tumors over rSCC-61 tumors (SCC-61 tumors; tumor: muscle ratio) [fold] | target (tumor) to non-target (muscle) ratio (rSCC-61 tumors) | SMILES | MitoSOX fluorescence in SCC-61 compared to rSCC-61 cells ([1]; 10.0 μM, 1 h incubation) | higher selectivity between the two cell lines compared to ascorbate selectivity ([1]; Example 4, SCC-61 vs rSCC-61, MitoSOX fluorescence) [fold] | higher differential selectivity between the high- and low-ROS cell lines compared to ascorbate ([1]; Example 5, SCC-61 vs rSCC-61, MitoSOX fluorescence) [fold] | fluorescent intensity of KS1-mitoSOX with SOD ([1]; SCC-61 cells, 10 μM, SOD (1.0 mM) pretreatment 60 min) [f.u] | fluorescent intensity of KS1-mitoSOX ([1]; SCC-61 cells, 10 μM, without SOD) [f.u] | decrease of fluorescent uptake by SOD pretreatment ([1]; SCC-61 cells, SOD (1.0 mM) for 60 min) [%] | ROS generation (DCFDA fluorescence) ([2]; 10 μM and 100 μM, SCC-61 and PC3) | fluorescence intensity (ROS generation) at pharmacological dose ([2]; 2 mM, 7 h, compared to 100 μM) | increased intensity subdued with SOD addition ([2]; 2 mM, SOD blocker) [fold] | tumor uptake with nonradioactive KS1 pretreatment, lower than baseline (PC3 tumors; KS1 15 mg/kg 45 min before tracer) [fold] | tumor uptake on mPET scans (PC3 tumors; baseline) | tumor uptake in SCC-61 tumors versus rSCC-61 tumors ([3]; ROI analysis on PET scans) [fold]
 |  |  |  | O=C1O/C(=C/CCl)C(O)=C1OCc1ccc(OCCF)cc1 [KS1, (E)-5-(2-chloroethylidene)-3-(4-(2-fluoroethoxy)benzyloxy)-4-hydroxyfuran-2(5H)-one] | higher fluorescence | ~10 | ~2.2 | 1842 | 3631 | ~50 | did not generate ROS | increased significantly | ~3 |  |  | 
no residual uptake | 10.93 | ~2.5 | 4.11 | O=C1O/C(=C/CCl)C(O)=C1OCc1ccc(OCC[18F])cc1 [[^18F]KS1] |  |  |  |  |  |  |  |  |  | ~3 | high tumor uptake | ~1.2
